{
  "source": "paper PMC8698333",
  "about": "(Biomedicines, 2021)",
  "key": {"hKOR with Gα3 subunit": {"biological_target": "T1, hKOR with Gα3 subunit (Homo sapiens, UniProt P41145)", "T1 construct": "alpha7 nicotinic receptor signal peptide (N); expressed in transfected cells; host or cells: HEK293, transient", "T1 sequence (P41145 whole entry)": "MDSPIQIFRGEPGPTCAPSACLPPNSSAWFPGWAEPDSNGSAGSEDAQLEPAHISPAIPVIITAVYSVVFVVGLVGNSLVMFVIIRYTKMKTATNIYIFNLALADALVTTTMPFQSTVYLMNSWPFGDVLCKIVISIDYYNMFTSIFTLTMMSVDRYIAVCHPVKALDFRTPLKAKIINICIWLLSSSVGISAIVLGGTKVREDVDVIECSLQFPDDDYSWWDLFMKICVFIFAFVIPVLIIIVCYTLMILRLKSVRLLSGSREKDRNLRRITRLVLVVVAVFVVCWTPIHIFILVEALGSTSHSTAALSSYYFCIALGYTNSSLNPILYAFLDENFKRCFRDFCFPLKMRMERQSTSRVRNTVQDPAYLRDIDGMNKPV", "T1 sequence (P08754 whole entry partner)": "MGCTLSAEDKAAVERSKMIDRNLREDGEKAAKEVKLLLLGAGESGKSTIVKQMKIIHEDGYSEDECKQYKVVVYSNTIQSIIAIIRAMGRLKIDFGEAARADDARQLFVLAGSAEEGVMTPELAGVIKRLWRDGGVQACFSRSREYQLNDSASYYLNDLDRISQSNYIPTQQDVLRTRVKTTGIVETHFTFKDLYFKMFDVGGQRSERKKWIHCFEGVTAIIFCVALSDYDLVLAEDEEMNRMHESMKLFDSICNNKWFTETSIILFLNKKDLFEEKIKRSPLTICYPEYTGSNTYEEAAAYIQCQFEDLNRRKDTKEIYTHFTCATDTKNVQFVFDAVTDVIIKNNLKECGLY", "T1 sequence (P16520 whole entry partner)": "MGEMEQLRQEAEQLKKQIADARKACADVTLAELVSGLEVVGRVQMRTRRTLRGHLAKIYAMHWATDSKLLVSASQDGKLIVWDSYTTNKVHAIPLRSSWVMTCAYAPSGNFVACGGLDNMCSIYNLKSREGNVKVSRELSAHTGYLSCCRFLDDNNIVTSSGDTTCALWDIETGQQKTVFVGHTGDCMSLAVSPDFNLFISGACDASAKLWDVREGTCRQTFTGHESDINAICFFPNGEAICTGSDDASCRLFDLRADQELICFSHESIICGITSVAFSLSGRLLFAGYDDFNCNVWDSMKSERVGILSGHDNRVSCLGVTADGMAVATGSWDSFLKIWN", "T1 sequence (O14610 1-66 partner limits assumed)": "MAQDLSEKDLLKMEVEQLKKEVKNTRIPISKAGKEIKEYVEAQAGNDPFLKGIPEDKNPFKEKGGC", "assay": "TRUPATH (BRET) G-protein dissociation, Gα3 subunit", "type": "cell-based", "details": "mean ± SEM"}, "[1]": {"biological_target": "T2, hKOR (β-arrestin recruitment) (Homo sapiens, UniProt P41145)", "T2 construct": "tTA (Tango cassette); expressed in transfected cells; host or cells: HEK293, transient", "T2 sequence (P41145 whole entry)": "as the sequence (P41145 whole entry) above", "T2 sequence (P32121 whole entry partner)": "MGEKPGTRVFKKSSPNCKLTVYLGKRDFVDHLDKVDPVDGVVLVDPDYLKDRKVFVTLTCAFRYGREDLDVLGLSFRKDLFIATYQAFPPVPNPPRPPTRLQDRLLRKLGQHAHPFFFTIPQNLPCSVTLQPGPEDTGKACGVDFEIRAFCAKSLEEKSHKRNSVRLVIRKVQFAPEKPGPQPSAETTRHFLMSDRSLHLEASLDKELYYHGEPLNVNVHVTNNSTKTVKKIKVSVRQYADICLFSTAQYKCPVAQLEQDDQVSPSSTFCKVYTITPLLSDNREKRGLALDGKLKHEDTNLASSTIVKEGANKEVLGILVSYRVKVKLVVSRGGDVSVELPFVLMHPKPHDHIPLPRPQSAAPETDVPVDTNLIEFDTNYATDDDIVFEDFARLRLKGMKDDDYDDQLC", "assay": "PRESTO-Tango β-arrestin recruitment assay", "type": "cell-based", "details": "SEM"}, "hKOR with Gα1 subunit": {"biological_target": "T3, hKOR with Gα1 subunit (Homo sapiens, UniProt P41145)", "T3 construct": "alpha7 nicotinic receptor signal peptide (N); expressed in transfected cells; host or cells: HEK293, transient", "T3 sequence (P16520 whole entry)": "as the sequence (P16520 whole entry partner) above", "T3 sequence (P63096 whole entry, further chain)": "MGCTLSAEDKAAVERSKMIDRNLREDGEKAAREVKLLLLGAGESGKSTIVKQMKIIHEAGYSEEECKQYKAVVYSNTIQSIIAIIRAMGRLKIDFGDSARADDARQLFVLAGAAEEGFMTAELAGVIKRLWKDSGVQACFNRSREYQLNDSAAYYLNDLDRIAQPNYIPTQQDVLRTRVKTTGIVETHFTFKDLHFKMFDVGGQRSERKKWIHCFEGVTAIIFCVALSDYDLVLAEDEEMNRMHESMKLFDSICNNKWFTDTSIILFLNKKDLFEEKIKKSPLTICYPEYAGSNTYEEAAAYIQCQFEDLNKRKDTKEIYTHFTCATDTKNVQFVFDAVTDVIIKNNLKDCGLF", "T3 sequence (P41145 whole entry)": "as the sequence (P41145 whole entry) above", "T3 sequence (O14610 1-66, further chain)": "as the sequence (O14610 1-66 partner limits assumed) above", "assay": "TRUPATH (BRET) G-protein dissociation, Gα1 subunit", "type": "cell-based", "details": "SEM"}, "hKOR with Gα2 subunit": {"biological_target": "T4, hKOR with Gα2 subunit (Homo sapiens, UniProt P41145)", "T4 construct": "alpha7 nicotinic receptor signal peptide (N); expressed in transfected cells; host or cells: HEK293, transient", "T4 sequence (P41145 whole entry)": "as the sequence (P41145 whole entry) above", "T4 sequence (P04899 whole entry partner)": "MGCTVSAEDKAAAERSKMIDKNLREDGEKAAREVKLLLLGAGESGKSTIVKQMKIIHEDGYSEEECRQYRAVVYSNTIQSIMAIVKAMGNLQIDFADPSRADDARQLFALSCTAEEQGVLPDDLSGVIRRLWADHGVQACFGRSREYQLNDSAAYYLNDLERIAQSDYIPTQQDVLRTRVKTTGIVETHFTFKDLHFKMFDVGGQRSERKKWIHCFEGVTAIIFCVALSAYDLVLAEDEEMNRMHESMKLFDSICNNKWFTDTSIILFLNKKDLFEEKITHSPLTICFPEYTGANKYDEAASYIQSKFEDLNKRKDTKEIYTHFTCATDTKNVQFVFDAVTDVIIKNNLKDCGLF", "T4 sequence (P16520 whole entry partner)": "as the sequence (P16520 whole entry partner) above", "T4 sequence (Q9UK08 1-67 partner limits assumed)": "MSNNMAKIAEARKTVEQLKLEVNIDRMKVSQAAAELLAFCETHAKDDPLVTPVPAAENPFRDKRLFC", "assay": "TRUPATH (BRET) G-protein dissociation, Gα2 subunit", "type": "cell-based", "details": "SEM"}, "[2]": {"biological_target": "T5, human KOR receptors (hKOR) (Homo sapiens, UniProt P41145)", "T5 construct": "expressed in transfected cells", "T5 sequence (P41145 whole entry)": "as the sequence (P41145 whole entry) above", "assay": "[35S]GTPγS functional assay on hKOR-CHO cell membranes", "type": "biochemical", "details": "SEM", "protocol": "CHO cells stably transfected with human KOR receptors (hKOR-CHO) were courtesy of Prof. Liu-Chen (Temple University, Philadelphia, PA, USA). Cells were grown in Gibco™ Dulbecco’s Minimal Essential Medium (DMEM) supplemented with 10% FBS, Glutamax (100 μg/mL), penicillin/ streptomycin (100 μg/mL) and geneticin (G418, 400 μg/mL). […] Cell cultures were maintained in a Heracell™ 150i CO2 incubator at 37 °C and 5.0% CO2.\nFunctional assays were conducted on hKOR-CHO cell membranes. Membranes were prepared in 50 mM Tris-HCl buffer pH 7.7. Cells were harvested by scraping the plates with a rubber policeman and were then centrifuged at 500× g for 10 min. The cell pellet was resuspended in Tris-HCl, homogenized with a Dounce homogenizer and centrifuged at 27,000× g for 15 min. […] The protein concentration of the homogenate was determined by Biuret reaction (RotiQuant Universal, Carl Roth) and stored at −70 °C until use.\nTo perform the GTPγS assay, membrane homogenates (10 μg/reaction tube) were diluted in HEPES buffer (20 mM) together with 10 μM GDP and 0.05 nM [^35S]GTPγS (Perkin Elmer, MA, USA). […] Non-specific binding was determined using 10 μM unlabeled GTPγS (Sigma-Aldrich, Vienna, Austria). Samples were filtered over glass fiber filters (GF/B Whatman) and the bound radioactivity was measured by liquid scintillation counting as counts per minute (CPM)."}, "hKOR with GαoA subunit": {"biological_target": "hKOR with GαoA subunit (Homo sapiens, UniProt P41145)", "sequence (P16520 whole entry)": "as the sequence (P16520 whole entry partner) above", "sequence (P41145 whole entry)": "as the sequence (P41145 whole entry) above", "sequence (P09471 whole entry, further chain)": "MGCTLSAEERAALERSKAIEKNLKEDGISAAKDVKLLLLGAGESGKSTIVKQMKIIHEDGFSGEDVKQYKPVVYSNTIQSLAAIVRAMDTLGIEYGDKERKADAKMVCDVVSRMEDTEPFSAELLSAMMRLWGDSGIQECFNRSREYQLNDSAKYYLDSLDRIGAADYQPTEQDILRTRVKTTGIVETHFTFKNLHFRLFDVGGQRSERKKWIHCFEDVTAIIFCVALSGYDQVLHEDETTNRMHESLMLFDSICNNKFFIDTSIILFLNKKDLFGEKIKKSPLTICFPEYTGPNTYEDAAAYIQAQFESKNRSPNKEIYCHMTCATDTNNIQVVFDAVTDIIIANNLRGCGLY", "sequence (Q9UK08 1-67, further chain)": "as the sequence (Q9UK08 1-67 partner limits assumed) above", "assay": "cell-based", "details": "SEM"}, "hKOR with GαoB subunit": {"biological_target": "T6, hKOR with GαoB subunit (Homo sapiens, UniProt P41145)", "T6 construct": "alpha7 nicotinic receptor signal peptide (N); expressed in transfected cells; host or cells: HEK293, transient", "T6 sequence (P41145 whole entry)": "as the sequence (P41145 whole entry) above", "T6 sequence (P09471 1-354 isoform P09471-2 partner)": "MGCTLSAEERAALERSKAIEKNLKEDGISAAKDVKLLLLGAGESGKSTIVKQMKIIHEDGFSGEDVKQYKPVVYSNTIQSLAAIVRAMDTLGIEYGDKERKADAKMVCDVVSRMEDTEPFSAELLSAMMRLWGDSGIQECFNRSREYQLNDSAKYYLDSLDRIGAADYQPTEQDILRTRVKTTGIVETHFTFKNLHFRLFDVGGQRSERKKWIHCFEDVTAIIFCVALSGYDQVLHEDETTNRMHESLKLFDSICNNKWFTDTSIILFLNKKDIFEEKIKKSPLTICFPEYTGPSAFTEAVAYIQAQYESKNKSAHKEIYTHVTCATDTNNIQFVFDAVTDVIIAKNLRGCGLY", "T6 sequence (P16520 whole entry partner)": "as the sequence (P16520 whole entry partner) above", "T6 sequence (Q9UK08 1-67 partner limits assumed)": "as the sequence (Q9UK08 1-67 partner limits assumed) above", "assay": "TRUPATH (BRET) G-protein dissociation, GαoB subunit", "type": "cell-based", "details": "SEM"}, "hKOR with GαZ subunit": {"biological_target": "T7, hKOR with GαZ subunit (Homo sapiens, UniProt P41145)", "T7 construct": "alpha7 nicotinic receptor signal peptide (N); expressed in transfected cells; host or cells: HEK293, transient", "T7 sequence (P41145 whole entry)": "as the sequence (P41145 whole entry) above", "T7 sequence (P19086 whole entry partner)": "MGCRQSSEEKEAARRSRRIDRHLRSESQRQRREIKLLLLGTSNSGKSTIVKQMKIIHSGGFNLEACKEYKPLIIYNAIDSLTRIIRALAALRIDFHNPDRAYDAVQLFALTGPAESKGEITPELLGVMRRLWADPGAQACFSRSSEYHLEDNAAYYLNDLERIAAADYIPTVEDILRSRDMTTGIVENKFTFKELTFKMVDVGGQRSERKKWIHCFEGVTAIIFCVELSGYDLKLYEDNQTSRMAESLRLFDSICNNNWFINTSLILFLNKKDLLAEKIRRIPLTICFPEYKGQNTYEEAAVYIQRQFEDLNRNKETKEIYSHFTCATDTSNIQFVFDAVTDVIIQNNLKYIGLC", "T7 sequence (P16520 whole entry partner)": "as the sequence (P16520 whole entry partner) above", "T7 sequence (P63211 1-71 partner limits assumed)": "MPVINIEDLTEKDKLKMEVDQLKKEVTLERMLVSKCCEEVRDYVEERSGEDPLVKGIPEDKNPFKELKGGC", "assay": "TRUPATH (BRET) G-protein dissociation, GαZ subunit", "type": "cell-based", "details": "SEM"}, "[3]": {"details": "EC50, TRUPATH α3 (#, same cell batch), HEK293 with hKOR and Gα3, signal bias series marked #, performed on the same cell batch, n = 9"}},
  "note": "No end group written: not given here.",
  "data": [
    {"sequence": "YGGFLRRICPKLKWDNQ [DynA_R9C]", "values": [
      {"measurement": "EC50", "setting": "hKOR with Gα3 subunit; [3]", "value": "0.024 ± 0.009", "unit": "µM"},
      {"measurement": "EC50", "setting": "[1]", "value": "0.088 ± 0.032", "unit": "µM"}
    ]},
    {"sequence": "YGGFSRRIRPKLKWDNQ [DynA_L5S]", "values": [
      {"measurement": "EC50", "setting": "hKOR with Gα3 subunit; [3]", "value": "0.078 ± 0.037", "unit": "µM"},
      {"measurement": "EC50", "setting": "[1]", "value": "0.236 ± 0.065", "unit": "µM"}
    ]},
    {"sequence": "YGGFLWRIRPKLKWDNQ [DynA_R6W]", "values": [
      {"measurement": "EC50", "setting": "hKOR with Gα1 subunit", "value": "0.211 ± 0.036", "unit": "µM"},
      {"measurement": "EC50", "setting": "hKOR with Gα2 subunit", "value": "0.078 ± 0.042", "unit": "µM"},
      {"measurement": "EC50", "setting": "[2]", "value": "0.105 ± 0.023", "unit": "µM"},
      {"measurement": "EC50", "setting": "hKOR with GαoA subunit", "value": "0.133 ± 0.08", "unit": "µM"},
      {"measurement": "EC50", "setting": "hKOR with GαoB subunit", "value": "0.062 ± 0.015", "unit": "µM"},
      {"measurement": "EC50", "setting": "hKOR with Gα3 subunit; [3]", "value": "0.133 ± 0.075", "unit": "µM"},
      {"measurement": "EC50", "setting": "hKOR with Gα3 subunit; EC50, TRUPATH α3, HEK293 transiently transfected with hKOR and Gα3, 30 min, n = 6 (transducerome series)", "value": "0.161 ± 0.051", "unit": "µM"},
      {"measurement": "EC50", "setting": "[1]", "value": "0.67 ± 0.215", "unit": "µM"},
      {"measurement": "EC50", "setting": "hKOR with GαZ subunit", "value": "0.027 ± 0.009", "unit": "µM"}
    ]}
  ]
}
